Measurements published in patent publication US12702715B2, “Targeted RNA degradation allows precision repurposing of protein-targeted small molecule medicines to RNA” (University of Florida Research Foundation, Incorporated, priority 2020, dated 2026).
Entries after “also recorded” stand apart in the source; their conditions may differ.

Experiments:
pre-miR-21 mutant = assay: In vitro Dicer processing of pre-miR-21 mutant; assay type: biochemical
Protocol: In vitro Dicer Processing. The pre-miR-21 WT RNA or pre-miR-21 base pair mutant were 5′-end labeled with T4 polynucleotide kinase and [γ-^32P] ATP as described previously^7. The RNA was folded in 1× Reaction Buffer (Genlantis) by heating at 55° C. for 5 min and cooling slowly to room temperature on the benchtop. The mixture was then supplemented with 2.5 mM MgCl2 and 1 mM ATP. The Dicer processing reaction was performed as described previously^6. The cleavage products were resolved on a 15% polyacrylamide denaturing gel and imaged using a Molecular Dynamics Typhoon phosphorimager and quantified with QuantityOne software from Bio-Rad.

RNase L = RNase L (Homo sapiens, UniProt Q05823); assay: In vitro RNase L oligomerization; assay type: biochemical
Protocol: In Vitro RNase L Oligomerization. To a solution of RNase L (3 μM) in 1× RNase L Buffer (add components) was added MgCl2, fresh β-mercaptoethanol, and ATP to final concentrations of 10 mM, 7 mM, and 50 μM respectively. The oligomerization of RNase L induced by small molecules was assessed as previously reported^6. The monomeric and oligomeric RNase L protein was resolved by Western blot and detected using an RNase L primary antibody (1:6000 dilution; Cell Signaling Technology, D4B4J). The blot was incubated with the antibody in 1×TBST (Tris-buffered saline supplemented with 0.1% (v/v) Tween-20) and 5% (w/v) nonfat dry milk at 4° C. overnight. After washing, the blot was incubated with 1:12000 anti-rabbit IgG, HRP-linked Antibody (Cell Signaling Technology, 7074S) in 1×TBST with 5% (w/v) nonfat dry milk for 1 h at room temperature. After washing with 1×TBST for 10 min three times, monomeric and oligomerized RNase L protein was detected by using SuperSignal West Pico Chemiluminescent Substrate (Pierce Biotechnology). ImageJ software was used for quantification.

[1] = biological target: T1, RNase L / pre-miR-21 ternary complex (Homo sapiens, UniProt Q05823); assay: RNase L immunoprecipitation; assay type: cell-based; conditions: 1 μM
T1 construct: endogenous in cells; host or cells: MDA-MB-231
T1 sequence (Q05823 1-741): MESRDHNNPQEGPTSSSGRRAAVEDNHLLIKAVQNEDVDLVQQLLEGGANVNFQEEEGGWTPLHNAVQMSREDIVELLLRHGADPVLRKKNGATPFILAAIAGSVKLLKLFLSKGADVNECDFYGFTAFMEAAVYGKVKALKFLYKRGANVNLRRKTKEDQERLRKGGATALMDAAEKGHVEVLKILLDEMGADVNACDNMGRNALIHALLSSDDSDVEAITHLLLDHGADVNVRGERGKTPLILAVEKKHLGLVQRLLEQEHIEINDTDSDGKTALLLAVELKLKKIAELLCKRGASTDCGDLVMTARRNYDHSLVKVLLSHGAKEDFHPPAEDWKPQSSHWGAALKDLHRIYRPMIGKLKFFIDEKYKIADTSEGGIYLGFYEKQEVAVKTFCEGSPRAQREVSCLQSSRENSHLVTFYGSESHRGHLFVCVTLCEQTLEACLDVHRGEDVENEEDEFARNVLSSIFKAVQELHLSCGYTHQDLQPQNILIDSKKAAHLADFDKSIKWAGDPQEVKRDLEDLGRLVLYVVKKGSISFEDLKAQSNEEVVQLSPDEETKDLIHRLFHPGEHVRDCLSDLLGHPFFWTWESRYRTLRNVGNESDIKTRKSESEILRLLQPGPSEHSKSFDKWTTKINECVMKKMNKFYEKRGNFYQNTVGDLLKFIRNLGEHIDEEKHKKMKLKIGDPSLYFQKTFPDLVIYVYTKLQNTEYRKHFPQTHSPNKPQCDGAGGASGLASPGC
Protocol: RNase L Immunoprecipitation. MDA-MB-231 cells were seed in 6-well plates and were treated with vehicle, 4 (1 μM) or 5 (1 μM) when the cells reached ~70% confluency. After 48 h, the cells were harvested and lysed in 100 μL of M-PER buffer containing protease inhibitor and RNaseOUT recombinant Ribonuclease Inhibitor (Invitrogen) on ice for 20 min. The lysate was centrifuged at 13,000×g for 15 min, and the supernatants were incubated with Dynabeads Protein A (Life Technologies) bound to RNase L mouse primary antibody or β-actin mouse primary antibody overnight at 4° C. After incubation, the beads were washed with 1×DPBS containing 0.02% (v/v) Tween-20, and RNA was extracted by using a miRNeasy Mini Kit (Qiagen) per the manufacturer's instructions. RT-qPCR was performed as described above. Relative RNA levels were determined by ΔΔCt method by normalizing to 18S rRNA levels. Normalized fold change was calculated as previously described^6.

Alport mice (Col4a3−/−) = assay: Alport mice studies; assay type: in vivo, mouse
Protocol: Alport Mice Studies. Alport mice (Col4a3^−/−) and wild type (WT) mice (Col4a3^+/+) were obtained from the breeding of heterozygous […]. Urine was collected 1 day before the treatment, considered as Day 1. The treatment started at Day 2, at around 4 weeks of age. Alport mice were treated with vehicle or 2 as described for NOD/SCID mice in the “In Vivo Studies to Assess Metastasis of Breast Cancer to the Lung” section. Urine was collected every other day for analysis of albumin or creatine levels. After 6 weeks of treatment, the mice were euthanized on Day 43. One kidney was frozen in −80° C. for Western blot and RT-qPCR analyses. The other kidney was fixed in formalin for paraffin-embedding sectioning and further staining.
Evaluation of Kidney Function. The concentration of urine albumin was determined by using a Mouse Albumin ELISA Kit (Bethyl Laboratories Inc, E99-134) per the manufacturer's protocol. Urine creatinine level was measured by using a Urinary Creatinine Assay Kit (Fisher Scientific, 50-673-569) per the manufacturer's protocol.
Kidney Tissue Histology. Silver staining, PAS staining, and PPARα staining were performed by Histology Core at Scripps Research Florida. The anti-PPARα (Abcam, ab215270) was used at 1:1000 dilution. FISH imaging of miR-21 and pre-miR-21 were completed as described in “Lung Tissue Histology”.

Compound | inhibition of Dicer processing of mutant pre-miR-21 lacking the 1 binding site (pre-miR-21 mutant) | RNase L oligomerization / dimerization (RNase L) | enrichment of pre-miR-21 in RNase L immunoprecipitation ([1]; MDA-MB-231) | enrichment of pre-miR-210 in RNase L immunoprecipitation ([1]; pre-miRNA without 1-binding site) | body weight of Alport mice (Alport mice (Col4a3−/−); 56 mg/kg q.o.d.) | urine albumin normalized to urine creatinine (Alport mice (Col4a3−/−); 56 mg/kg, q.o.d., 42 days) | PPARα expression in kidneys (Alport mice (Col4a3−/−); Alport mice) | tubule injury / tubulointerstitial pathology (Alport mice (Col4a3−/−); PAS staining) | pre-miR-21 levels in kidneys (Alport mice (Col4a3−/−); both Alport and WT mice) | mature miR-21 levels in kidneys (Alport mice (Col4a3−/−); both WT and Alport mice, RT-qPCR) | glomerulosclerosis (Alport mice (Col4a3−/−); silver methenamine staining)
CN1CCN(c2ccc3nc(-c4c(N)c5c(F)cccc5[nH]c4=O)[nH]c3c2)CC1 [Compound 1, Dovitinib, reference compound] | had no effect; also recorded: unable to inhibit | – | – | – | – | – | – | – | – | – | –
CCOC(=O)C1=C(Nc2ccccc2)S/C(=C\c2ccc(OCCOCCOCCOCCNC(=O)NCCN3CCN(c4ccc5[nH]c(-c6c(N)c7c(F)cccc7[nH]c6=O)nc5c4)CC3)c(O)c2)C1=O [Compound 2, Ribotac-Dovitinib] | – | recruits and dimerizes; also recorded: oligomerized RNase L in a dose dependent manner | immunoprecipitated pre-miR-21; also recorded: enriched | did not enrich | gained more weight than vehicle-treated mice | stabilized; also recorded: decreased urine albumin concentration | enhanced; also recorded: derepressed | significantly reduced; also recorded: prevented tubule injury | reduced; also recorded: decreased | decreased miR-21 levels; also recorded: reduced | prevents glomerulosclerosis and tubular atrophy; also recorded: significantly reduced
